Source: the supplement of paper PMC10307832

Columns and labels:
Assay in all cases: relative viability (nuclei count vs DMSO), 5 days (fraction); higher = more cells survive
[1] = compound: CN1CCN(c2ccc3nc(-c4c(N)c5c(F)cccc5[nH]c4=O)[nH]c3c2)CC1 [Dovitinib] + O=C(CCCCCCC(=O)Nc1ccccc1)NO [Vorinostat] (partner 1 µM)
Procedure, shortened: (§1)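 Relative viability equals treated-well nuclei counts divided by vehicle-well nuclei counts. Counts came from 4× images of lung cancer cell lines grown in 1536-well plates for 5 days after pin-tool dosing on the day after seeding. Dosing used one drug alone or a fixed anchor-drug dose plus five library-drug doses (not always all listed) in √10 steps, and values are medians of duplicate plates.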

[2] = compound: CN1CCN(c2ccc3nc(-c4c(N)c5c(F)cccc5[nH]c4=O)[nH]c3c2)CC1 [Dovitinib] + Nc1nc2[nH]cc(CCc3ccc(C(=O)N[C@@H](CCC(=O)O)C(=O)O)cc3)c2c(=O)[nH]1 [Pemetrexed] (partner 0.2 µM)
Procedure, shortened: as §1

[3] = compound: CN1CCN(c2ccc3nc(-c4c(N)c5c(F)cccc5[nH]c4=O)[nH]c3c2)CC1 [Dovitinib] + Cc1nc(Nc2ncc(C(=O)Nc3c(C)cccc3Cl)s2)cc(N2CCN(CCO)CC2)n1 [Dasatinib] (partner 0.075 µM)
Procedure, shortened: as §1

[4] = compound: CN1CCN(c2ccc3nc(-c4c(N)c5c(F)cccc5[nH]c4=O)[nH]c3c2)CC1 [Dovitinib] + CC(=O)c1c(C)c2cnc(Nc3ccc(N4CCNCC4)cn3)nc2n(C2CCCC2)c1=O [Palbociclib] (partner 0.5 µM)
Procedure, shortened: as §1

Cell Line	relative viability ([1]; first compound 0.02 µM)	relative viability ([1]; first compound 0.06325 µM)	relative viability ([1]; first compound 0.2 µM)	relative viability ([1]; first compound 0.6325 µM)	relative viability ([1]; first compound 2 µM)	relative viability ([2]; first compound 0.02 µM)	relative viability ([2]; first compound 0.06325 µM)	relative viability ([2]; first compound 0.2 µM)	relative viability ([2]; first compound 0.6325 µM)	relative viability ([2]; first compound 2 µM)	relative viability ([3]; first compound 0.02 µM)	relative viability ([3]; first compound 0.06325 µM)	relative viability ([3]; first compound 0.2 µM)	relative viability ([3]; first compound 0.6325 µM)	relative viability ([3]; first compound 2 µM)	relative viability ([4]; first compound 0.02 µM)	relative viability ([4]; first compound 0.06325 µM)	relative viability ([4]; first compound 0.2 µM)	relative viability ([4]; first compound 0.6325 µM)	relative viability ([4]; first compound 2 µM)
NCI-H2087	0.817	0.79	0.685	0.837	0.803	0.755	0.668	0.661	0.716	0.616	0.836	0.847	0.869	0.889	0.98	0.276	0.229	0.191	0.197	0.255
NCI-H2126	0.811	0.819	0.798	0.876	0.838	0.734	0.653	0.676	0.705	0.711	0.599	0.596	0.766	0.622	0.623	0.363	0.357	0.354	0.339	0.327
NCI-H2170	0.752	0.783	0.819	0.839	0.783	0.267	0.33	0.267	0.265	0.281	0.552	0.566	0.608	0.599	0.552	0.419	0.448	0.399	0.39	0.407
NCI-H2228	0.559	0.81	0.402	0.79	0.6	0.258	0.344	0.324	0.33	0.321	0.549	0.624	0.495	0.435	0.588	0.763	0.815	0.696	0.79	0.678
NCI-H2342	0.738	0.71	0.781	0.717	0.735	0.787	0.74	0.74	0.835	0.777	0.339	0.324	0.337	0.298	0.318	0.621	0.517	0.553	0.621	0.537
NCI-H2347	0.694	0.647	0.561	0.692	0.686	0.479	0.53	0.415	0.467	0.475	0.317	0.276	0.322	0.303	0.33	0.454	0.446	0.462	0.474	0.409
NCI-H2405	0.99	0.961	1.07	1.06	1.17	1.05	1.02	1.25	1.08	1.11	0.201	0.222	0.174	0.204	0.235	0.511	0.516	0.546	0.504	0.556
NCI-H3122	0.823	0.91	1.07	0.951	1.08	0.194	0.207	0.199	0.186	0.189	0.721	0.857	0.914	0.832	0.749	0.226	0.173	0.184	0.181	0.21
